# Source: patent US9394547B2, “Method and apparatus for delivery of molecules to cells” (CITY UNIVERSITY OF HONG KONG, priority 2012, dated 2016)
# Where a name gives a salt, the structure may show the parent alone.
# Assays:
# [1] = tested on: NIH3T3 fibroblast cells; experiment: Cytosolic delivery into fibroblast cells by diamond nanoneedle array under centrifugation (live/dead calcein AM/EthD-1 staining); assay type: cell-based
# Description: This kit has been widely used to characterize cell viability and cytotoxicity. In the assays, with application of nanoneedle array to cells, the membrane-permeant calcein AM enters cells and is cleaved by esterases in live cells to yield cytoplasmic green fluorescence; while the membrane-impermeant ethidium homodimer-1 (EthD-1) labels nucleic acids of membrane-disrupted cells with red fluorescence. […] In comparison, dead cells were labeled with only red fluorescence (FIG. 5). FIG. 5a are representative images of fibroblast cells after successful cytosolic delivery of EthD-1; FIG. 5b is a chart showing quantification of delivery efficiency; and FIG. 5c is a chart showing quantification of cell viability after being treated with nanoneedles arrays; all at a scale bar of 100 um.
# In an embodiment, the penetration and subsequent disruption of cell membrane by nanoneedles was precisely controlled by centrifugation-induced supergravity to achieve reliable, highly efficient, diffusion based cytosolic delivery. In a specific embodiment, in order to optimize the force applied onto the cell membranes through nanoneedles, the whole setup (cell culture plus nanoneedle array) was maintained in supergravity by centrifugation at a series of speeds from 300 rpm (12.8 g, RCF) to 1000 rpm (142 g). […]
# [2] = tested on: primary hippocampal neurons; experiment: Cytosolic delivery into primary hippocampal neurons by diamond nanoneedle array under centrifugation (live/dead staining); assay type: cell-based; settings: around 300 rpm (12.8 g)
# Procedure: Intracellular delivery into post-mitotic cells, such as neuron, has always been challenging. […] Compared with fibroblast cells, neurons are more vulnerable to membrane disruption induced by nanoneedle arrays. Generally, a relatively lower speed would be required to achieve similar delivery efficiency as in fibroblast cells (FIG. 6). […] Therefore, a centrifuging speed of 300-400 rpm was selected for following experiments with primary neurons. FIG. 6a are representative images of fibroblast cells after successful cytosolic delivery of EthD-1; FIG. 6b is a chart showing quantification of delivery efficiency; and FIG. 6c is a chart showing quantification of cell viability after being treated with nanoneedles arrays; all at a scale bar of 100 um.
# Hippocampal neuron cultures were prepared following the method previously described. Briefly, dissociated neurons were prepared from hippocampi dissected from E18 Sprague Dawley rats by enzymatic treatment with papain (Sigma) for 30 min at 37° C. followed by trituration with a 1 ml pipette tip. Before seeding neurons, all substrates were pre-coated with polylysine (Sigma, 100 μg ml^−1) and laminin (Invitrogen, 10 μg ml^−1). Neuron cells were treated with nanoneedle arrays at 6-7 days in vitro (DIV).
# Nanoneedle array was placed to float on culture medium with the needles facing toward cells. […]
# [3] = tested on: MC-3T3 cells; experiment: Flow cytometry of fluorescein intracellular delivery with diamond nanocone array; assay type: cell-based, Mouse; settings: fluorescein 1 mg/ml
# Procedure: Mouse MC3T3-E1 pre-osteoblasts, which can differentiate into osteoblasts, were used in the present study. The cells were cultured at 37° C. with 5% carbon dioxide (CO2) and 95% humidified air in Dulbecco's Modified Eagle Medium (DMEM) (Gibco) supplemented with 10% fetal bovine serum (FBS) (Gibco). The medium was renewed every 2-3 days and confluent cells were subcultured through trypsinization.
# Three groups of cells were studied. One group was untreated cells. Other two groups included the cells which were treated by smooth silicon substrate and diamond nanocone array. For treatment, a volume of […] MC-3T3 cell suspension was applied to the substrate with a speed of about 3 ms^−1 by a pipette (FIG. 16). After the application, the cell suspension was collected and pipetted to the substrate again with a similar speed. Such cell treatment procedure was repeated for 15 times. The same procedures were used in all experiments for enhanced intracellular delivery. Following cell treatment, cells were plated into 96-well microtiter plates. After 22 hours, morphology of each group of cells was observed by optical microscopy. After 24 hours, cell viability was determined by MTT assay.
# Subsequently, the enhanced intracellular delivery capability of the diamond nanocone array was firstly assessed by investigating the fluorescence intensity of fluorescein sodium salt stain in treated cells by quantitative analysis through flow cytometry. MC-3T3 cells were harvested at a density of 10^4 cells/ml. Fluorescien was added to cell growth medium at a concentration of 1 mg/ml. After the addition of fluorescein, a volume of 1 ml of this cell suspension was treated with the same method as that described above. Two experiments were arranged in investigating the intracellular delivery of fluorescein sodium salt. In one experiment, the negative control was to apply cells to a smooth silicon substrate without the nanocone array. In the other experiment, untreated cells were used as the control (i.e. neither nanocone array nor smooth Si substrate was used). After 15 min of staining, the suspensions of control and treated group cells were pelleted by centrifugation (Spectrafuge™ 16 M, Labnet) at 6000 rpm for 3 min, after which the supernatants were removed. The cell pellets were washed by 1 mL of phosphate buffered saline (PBS) and then resuspended throughly. The cell suspensions were centrifuged again at 6000 rpm for 3 min, and the cell pelletes were washed by PBS for 3 times in total. Finally, the cell suspensions were prepared with a concentration of 10^4 cells in PBS and then immediately analysed using a flow cytometer (Becton DICKINSON, FACSCalibur cytometer) by counting 1×10^4 cells per sample. […]
# [4] = tested on: A549 cells; experiment: Live-cell confocal imaging of luminescent iridium(III) complex delivery; assay type: cell-based
# Procedure: In this embodiment, suspension with the subjects was applied to the nanoneedle array at a speed of about 3.0 m/s. After treatment with the nanooneedles, the cells were grown on a sterile glass coverslip for 19 hours followed by PBS washing and then investigated by fluorescence confocal microscopy. Negligible cell death was found under microscopy in the experiments. FIG. 12a is a representative image showing the intracellular delivery of the iridium(III) polypyridine complex to A549 cells. […] In comparison, FIG. 12b is the image of the control group in which the cells were incubated with the complex for 19 hours but not treated with nanoneedles before incubation. FIGS. 12a and 12b were taken under the same microscope settings. […] (The arrows in the figures indicate the cells in which direct nucleic delivery of the luminescent complex is achieved with diamond needles treatment. The scale bars in FIGS. 12a), b), e) and f) indicate 25 μm).
# The fluorescence intensities in the cytoplasm of the two selected cells were normalized to be the same value and the fluorescence intensities in the nucleus of the two cells were compared. The representative results are shown in FIG. 12c for a nanoneedle-treated cell and FIG. 12d for a cell without treatment. […] For the nanoneedle treated group, unexpectedly, a number of cells in which the fluorescence signal was almost evenly distributed in the entire cells were found. For this reason, it was not apparent to locate their nuclei (indicated by the arrows in FIGS. 12e and 12f).
# A549 cells were maintained as exponentially growing cultures in a Dulbecco's modified Eagle's medium (DMEM) with 10% FBS and 1% penicillin/streptomycin at 37° C. The cells were trypsinized and suspended in DMEM medium. There are about 6×10^4 cells in one milliliter. Iridium(III) polypyridine complex was added to the cell medium at a concentration of 0.1 μM. […]
# A549 cell suspension in medium/DMSO (99:1, v/v) containing [Ir(ppy)2(bpy-Et)](PF6) (0.1 μM) was prepared. […] The emission was measured using a long-pass filter at 532 nm.
molecule,measurement,setting,value
ethidium homodimer-1 [EthD-1],cytosolic delivery efficiency of EthD-1,[1]; centrifugation 300 rpm,~5%
same,cytosolic delivery efficiency of EthD-1,[1]; centrifugation 500 rpm or above,~80%
same,delivery efficiency of EthD-1,[2],about 80%
O=C1OC2(c3ccc(O)cc3Oc3cc(O)ccc32)c2ccccc21 [fluorescein sodium salt],"M3, percentage of cells with fluorescence intensity 1×10^2 to 1×10^3","[3]; FIG. 20, cells treated with the nanocone array",73.5%
same,"M2, percentage of cells with fluorescence intensity 1×10^1 to 1×10^2","[3]; FIG. 20, control cells applied to smooth Si substrate",63.1%
same,"M3, percentage of cells with fluorescence intensity 1×10^2 to 1×10^3","[3]; FIG. 21, cells treated with the nanocone array",62.4%
same,"M2, percentage of cells with fluorescence intensity 1×10^1 to 1×10^2","[3]; FIG. 21, untreated sample (no nanocone, no Si substrate)",70.0%
[Ir(ppy)2(bpy-Et)](PF6) [iridium(III) polypyridine complex],fluorescence signal,"[4]; A549 cells, 0.1 μM, 19-hour incubation, not treated with nanoneedles",extremely weak
same,intracellular localization,"[4]; A549 cells, 0.1 μM, nanoneedle treated, 19 hours",mainly localized in the perinuclear region
same,nuclear uptake,"[4]; by diffusion, without nanoneedles",negligible nuclear uptake
